Experiments:
[1] = biological target: Serine/threonine-protein kinase pim-1 (Homo sapiens, UniProt P11309); assay: Inhibition of human full-length 6xHis-tagged PIM1 expressed in insect cells using S6K1Rsk2 peptide-2 substrate in presence of [33P]ATP incubated for 120 mins by scintillation counting based biochemical assay
[2] = biological target: Casein kinase II subunit alpha' (Homo sapiens, UniProt P19784); assay: Inhibition of GST-tagged full-length purified human CK2a2 using RRRDDDSDDD substrate incubated for 120 mins in presence of [33P]ATP by scintillation counting based biochemical assay
[3] = biological target: T1, PAS domain-containing serine/threonine-protein kinase (Homo sapiens, UniProt Q96RG2); assay: Inhibition of N-terminal GST-tagged human recombinant PASK kinase domain (879 to 1323 residues) expressed in insect cells using MBP protein substrate incubated for 120 mins in presence of [33P]ATP by scintillation counting based radiochemical assay
[4] = biological target: T1, PAS domain-containing serine/threonine-protein kinase; assay: Inhibition of human recombinant PASK using Ulight-peptide substrate incubated for 2 hrs by TR-FRET assay

T1 sequence (Q96RG2 whole entry, the tested form may be a part): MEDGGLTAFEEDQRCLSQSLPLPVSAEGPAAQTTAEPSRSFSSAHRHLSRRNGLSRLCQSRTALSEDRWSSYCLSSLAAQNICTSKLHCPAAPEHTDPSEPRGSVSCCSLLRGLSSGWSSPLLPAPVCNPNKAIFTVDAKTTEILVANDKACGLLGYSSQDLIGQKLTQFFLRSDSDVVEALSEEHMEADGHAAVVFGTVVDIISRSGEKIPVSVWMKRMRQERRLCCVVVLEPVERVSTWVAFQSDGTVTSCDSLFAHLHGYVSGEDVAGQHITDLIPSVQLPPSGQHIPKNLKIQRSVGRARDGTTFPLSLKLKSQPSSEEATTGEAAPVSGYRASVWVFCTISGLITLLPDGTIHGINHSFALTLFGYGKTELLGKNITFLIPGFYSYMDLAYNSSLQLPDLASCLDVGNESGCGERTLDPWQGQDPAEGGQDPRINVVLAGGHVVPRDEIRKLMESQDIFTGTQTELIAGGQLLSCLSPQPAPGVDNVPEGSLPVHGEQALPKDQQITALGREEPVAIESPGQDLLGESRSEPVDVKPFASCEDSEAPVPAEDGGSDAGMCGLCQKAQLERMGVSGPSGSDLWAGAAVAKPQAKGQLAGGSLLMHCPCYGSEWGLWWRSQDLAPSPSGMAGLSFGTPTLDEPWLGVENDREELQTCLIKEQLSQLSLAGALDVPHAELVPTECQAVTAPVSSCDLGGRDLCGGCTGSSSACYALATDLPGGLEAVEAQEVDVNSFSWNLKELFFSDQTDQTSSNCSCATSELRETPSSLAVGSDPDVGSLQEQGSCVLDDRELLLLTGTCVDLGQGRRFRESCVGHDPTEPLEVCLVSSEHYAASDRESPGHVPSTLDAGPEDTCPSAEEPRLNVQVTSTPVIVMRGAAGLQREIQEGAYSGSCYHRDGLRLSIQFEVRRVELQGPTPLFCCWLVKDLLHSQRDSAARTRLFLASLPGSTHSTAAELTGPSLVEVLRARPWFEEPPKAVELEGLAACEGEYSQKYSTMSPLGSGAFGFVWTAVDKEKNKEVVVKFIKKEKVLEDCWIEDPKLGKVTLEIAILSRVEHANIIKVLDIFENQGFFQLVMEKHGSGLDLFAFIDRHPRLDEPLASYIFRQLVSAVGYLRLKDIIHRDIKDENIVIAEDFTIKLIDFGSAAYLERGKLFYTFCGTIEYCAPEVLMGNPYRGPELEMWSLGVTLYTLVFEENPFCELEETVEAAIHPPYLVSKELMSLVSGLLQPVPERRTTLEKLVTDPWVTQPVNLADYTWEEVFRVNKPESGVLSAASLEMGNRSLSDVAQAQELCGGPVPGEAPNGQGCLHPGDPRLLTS
Sequence of Casein kinase II subunit alpha' (P19784 whole entry, the tested form may be a part): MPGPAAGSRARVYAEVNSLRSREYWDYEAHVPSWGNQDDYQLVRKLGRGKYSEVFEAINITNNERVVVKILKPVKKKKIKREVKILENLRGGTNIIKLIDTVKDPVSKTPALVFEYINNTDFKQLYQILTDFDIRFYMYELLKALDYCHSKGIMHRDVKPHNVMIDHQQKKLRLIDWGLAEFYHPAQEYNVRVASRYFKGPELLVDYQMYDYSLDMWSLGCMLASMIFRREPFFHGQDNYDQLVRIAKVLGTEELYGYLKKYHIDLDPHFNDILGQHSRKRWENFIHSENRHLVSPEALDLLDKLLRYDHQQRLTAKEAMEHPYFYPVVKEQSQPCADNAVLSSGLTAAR
Sequence of Serine/threonine-protein kinase pim-1 (P11309 whole entry): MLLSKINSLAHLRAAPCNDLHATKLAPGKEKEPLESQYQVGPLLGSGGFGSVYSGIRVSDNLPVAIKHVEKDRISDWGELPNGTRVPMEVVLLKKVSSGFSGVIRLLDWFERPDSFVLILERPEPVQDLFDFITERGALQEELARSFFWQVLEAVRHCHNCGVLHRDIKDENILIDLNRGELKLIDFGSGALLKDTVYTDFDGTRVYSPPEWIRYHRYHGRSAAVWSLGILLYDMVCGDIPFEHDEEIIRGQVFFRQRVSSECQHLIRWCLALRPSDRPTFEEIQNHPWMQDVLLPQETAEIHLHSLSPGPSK

IC50 [1] | IC50 [2] | IC50 [3] | IC50 [4] | SMILES
≤ 10 µM | ≤ 10 µM | ≤ 10 µM |  | COc1cc(-c2cc(=O)n3ncc(CC#N)c3[nH]2)ccc1Cl
≤ 10 µM | ≤ 10 µM | ≤ 10 µM |  | CCc1cnc(-c2cnn3c(=O)cc(-c4ccc5c(cnn5CC)c4)[nH]c23)o1
 |  |  | ≤ 10 µM | Cc1coc(-c2cnn3c(=O)cc(-c4ccc5[nH]ncc5c4)[nH]c23)n1
